# Results from patent publication US20110237629A1, “AMINO ACID ESTER PRODRUGS AND THE USE THEREOF” (Bayer Schering Pharma Aktiengesellschaft, priority 2008, published 2011).
# Structures can show the parent of a compound that is named as a salt.
# Experiments:
# [1] = Determination of the solubility (suspension shaken 24 h at room temperature, HPLC of supernatant); assay type: physicochemical; details: thermodynamic from solid
# Experimental: The test substance is suspended in water or dilute hydrochloric acid (pH 4) or in 5% strength aqueous dextrose solution. This suspension is shaken at room temperature for 24 h. After ultracentrifugation at 224 000 g for 30 min, the supernatant is diluted with DMSO and analysed by HPLC. A two-point calibration plot of the test compound in DMSO is used for quantification.
# Agilent 1100 with DAD (G1315A), quat. Pump (G1311A), autosampler CTC HTS PAL, degasser (G1322A) and column thermostat (G1316A); column: Phenomenex Gemini C18, 5 μm, 50 mm×2 mm; temperature: 40° C.; eluent A: water/phosphoric acid pH 2, eluent B: acetonitrile; flow rate: 0.7 ml/min; gradient: 0-0.5 min 85% A, 15% B; ramp 0.5-3 min 10% A, 90% B; 3-3.5 min 10% A, 90% B; ramp 3.5-4 min 85% A, 15% B; 4-5 min 85% A, 15% B.
# Agilent 1100 with DAD (G1315A), quat. pump (G1311A), autosampler CTC HTS PAL, degasser (G1322A) and column thermostat (G1316A); column: VDSoptilab Kromasil 100 C18, 3.5 μm, 60 mm×2.1 mm; temperature: 30° C.; eluent A: water+5 ml of perchloric acid/liter, eluent B: acetonitrile; flow rate: 0.75 ml/min; gradient: 0-0.5 min 98% A, 2% B; ramp 0.5-4.5 min 10% A, 90% B; 4.5-6 min 10% A, 90% B; ramp 6.5-6.7 min 98% A, 2% B; 6.7-7.5 min 98% A, 2% B.
# The solubilities of representative exemplary embodiments in dilute hydrochloric acid (pH 4) are shown in Table1: […]
# [2] = Stability in buffer at various pH values; assay type: physicochemical
# Experimental: 0.3 mg of the test substance is weighed into a 2 ml HPLC vial and 0.5 ml of acetonitrile or acetonitrile/DMSO (9:1) is added. The substance is dissolved by putting the sample vessel in an ultrasonic bath for about 10 seconds. Then 0.5 ml of the respective buffer solution is added, and the sample is again treated in the ultrasonic bath.
# (Buffer) solutions employed:
# pH 4: 1 liter of Millipore water is adjusted to pH 4.0 with 1 N hydrochloric acid;
# pH 5: 0.096 mol of citric acid and 0.2 mol of sodium hydroxide ad 1 liter of water;
# pH 7.4: 90.0 g of sodium chloride, 13.61 g of potassium dihydrogen phosphate and 83.35 g of 1 N sodium hydroxide solution are made up to 1 liter with water; this solution is then further diluted 1:10 with Millipore water.
# pH 8: 0.013 mol of borax and 0.021 mol of hydrochloric acid ad 1 liter of water.
# 5 μl portions of the test solution are analyzed by HPLC for their content of unchanged test substance, and of basic mother substance of the formula (A) formed, every hour over a period of 24 hours at 37° C. The percentage areas of the appropriate peaks are used for quantification.
# HPLC method for example 1:
# Agilent 1100 with DAD (G1315B), binary pump (G1312A), autosampler (G1329A), column oven (G1316A), thermostat (G1330B); column: Kromasil 100 C18, 125 mm×4 mm, 5 μm; column temperature: 30° C.; eluent A: water+5 ml perchloric acid/liter, eluent B: acetonitrile; gradient: 0 min 90% A→2.0 min 70% A→18.0 min 70% A 20.0 min 10% A→21.0 min 10% A→23.0 min 90% A→26.0 min 90% A; flow rate: 2.0 ml/min;
# HPLC method for example 3:
# Agilent 1100 with DAD (G1314A), binary pump (G1312A), autosampler (G1329A), column oven (G1316A), thermostat (G1330A); column: Kromasil 100 C18, 125 mm×4 mm, 5 μm; column temperature: 30° C.; eluent A: water+5 ml perchloric acid/liter, eluent B: acetonitrile; gradient: 0 min 90% A→2.0 min 64% A→18.0 min 64% A→20.0 min 10% A→21.0 min 10% A→23.0 min 90% A→26.0 min 90% A; flow rate: 2.0 ml/min UV detection: 294 nm.
# HPLC method for example 11:
# Agilent 1100 with DAD (G1315B), binary pump (G1312A), autosampler (G1329A), column oven (G1316A), thermostat (G1330B); column: Kromasil 100 C18, 125 mm×4 mm, 5 μm; column temperature: 30° C.; eluent A: water+5 ml of perchloric acid/liter, eluent B: acetonitrile; gradient: 0 min 90% A→2.0 min 64% A→18.0 min 64% A→20.0 min 10% A→21.0 min 10% A→23.0 min 90% A→26.0 min 90% A; flow rate: 2.0 ml/min; UV detection: 294 nm.
# HPLC method for example 14:
# Agilent 1100 with DAD (G1315B), binary pump (G1312A), autosampler (G1329A), column oven (G1316A), thermostat (G1330B); column: Kromasil 100 C18, 250 mm×4 mm, 5 μm; column temperature: 30° C.; eluent A: water+5 ml of perchloric acid/liter, eluent B: acetonitrile; gradient: 0 min 90% A→7.0 min 52% A→18.0 min 52% A→20.0 min 10% A→21.0 min 10% A→23.0 min 90% A -4 26.0 min 90% A; flow rate: 2.0 ml/min; UV detection: 288 nm.
# HPLC method for example 18:
# Agilent 1100 with DAD (G1315A), binary pump (G1312A), autosampler (G1329A), column oven (G1316A), thermostat (G1330A); column: Kromasil 100 C18, 125 mm×4 mm, 5 μm; column temperature: 30° C.; eluent A: water+5 ml of perchloric acid/liter, eluent B: acetonitrile; gradient: 0 min 90% A→6.0 min 61% A→18.0 min 61% A→20.0 min 10% A→21.0 min 10% A→23.0 min 90% A→26.0 min 90% A; flow rate: 2.0 ml/min; UV detection: 294 nm.
# The ratios of the peak areas (F) at the respective time points in relation to the peak areas at the starting time are shown in Table 3 for representative exemplary embodiments: […]
# [3] = saline or isotonic, 5% strength aqueous dextrose solution
compound,measurement,setting,value
"CC(C)[C@H](N)C(=O)OC[C@@H](COc1ccc(-c2c(C#N)c(N)nc(SCc3coc(-c4ccc(Cl)cc4)n3)c2C#N)cc1)OC(=O)[C@@H](N)C(C)C [Example 10, (2R)-3-{4-[2-Amino-6-({[2-(4-chlorophenyl)-1,3-oxazol-4-yl]methyl}sulphanyl)-3,5-dicyanopyridin-4-yl]phenoxy}propane-1,2-diyl(2S,2′S)-bis(2-amino-3-methylbutanoate)-dihydro-chloride]",solubility at 24 h,[1]; [3],> 500 µg/mL
"CC(C)C[C@H](N)C(=O)OC[C@H](COc1ccc(-c2c(C#N)c(N)nc(SCc3coc(-c4ccc(Cl)cc4)n3)c2C#N)cc1)OC(=O)[C@@H](N)CC(C)C [Example 17, (2S)-3-{4-[2-Amino-6-({[2-(4-chlorophenyl)-1,3-oxazol-4-yl]methyl}sulphanyl)-3,5-dicyanopyridin-4-yl]phenoxy}propane-1,2-diyl(2S,2′S)-bis(2-amino-4-methylpentanoate)bis(trifluoroacetic acid) salt]",solubility at 24 h,[1]; [3],330 µg/mL
"N#Cc1c(N)nc(SCc2coc(-c3ccc(Cl)cc3)n2)c(C#N)c1-c1ccc(OC[C@@H](COC(=O)[C@@H](N)CCCCN)OC(=O)[C@@H](N)CCCCN)cc1 [Example 13, (2S)-3-{4-[2-Amino-6-({[2-(4-chlorophenyl)-1,3-oxazol-4-yl]methyl}sulphanyl)-3,5-dicyanopyridin-4-yl]phenoxy)propane-1,2-diyl(2S,2′S)-bis(2,6-diaminohexanoate)dihydrochloride]",solubility at 24 h,[1]; [3],710 µg/mL
"C[C@H](N)C(=O)OC[C@@H](COc1ccc(-c2c(C#N)c(N)nc(SCc3coc(-c4ccc(Cl)cc4)n3)c2C#N)cc1)OC(=O)[C@H](C)N [Example 11, (2R)-3-{4-[2-Amino-6-({[2-(4-chlorophenyl)-1,3-oxazol-4-yl]methyl}sulphanyl)-3,5-dicyanopyridin-4-yl]phenoxy}propane-1,2-diyl(2S,2′S)-bis(2-aminopropanoate)dihydrochloride]",% test substance after 4 h [F(t = 4 h) × 100/F(t = 0 h)],"[2]; pH 4, 37° C.",96%
same,% test substance after 24 h [F(t = 24 h) × 100/F(t = 0 h)],"[2]; pH 4, 37° C.",96%
same,% test substance after 4 h [F(t = 4 h) × 100/F(t = 0 h)],"[2]; pH 7.4, 37° C.",84%
same,% test substance after 24 h [F(t = 24 h) × 100/F(t = 0 h)],"[2]; pH 7.4, 37° C.",44%
"CC(C)[C@H](N)C(=O)OC[C@H](COc1ccc(-c2c(C#N)c(N)nc(SCc3coc(-c4ccc(Cl)cc4)n3)c2C#N)cc1)OC(=O)[C@@H](N)C(C)C [Example 16, (2S)-3-{4-[2-Amino-6-({[2-(4-chlorophenyl)-1,3-oxazol-4-yl]methyl}sulphanyl)-3,5-dicyanopyridin-4-yl]phenoxy}propane-1,2-diyl(2S,2′S)-bis(2-amino-3-methylbutanoate)bis(trifluoroacetic acid) salt]",solubility at 24 h,[1]; [3],250 µg/mL
"C[C@@H](O)[C@H](N)C(=O)OC[C@H](COc1ccc(-c2c(C#N)c(N)nc(SCc3coc(-c4ccc(Cl)cc4)n3)c2C#N)cc1)OC(=O)[C@@H](N)[C@@H](C)O [Example 18, (2S)-3-{4-[2-Amino-6-({[2-(4-chlorophenyl)-1,3-oxazol-4-yl]methyl}sulfanyl)-3,5-dicyanopyridin-4-yl]phenoxy}propane-1,2-diyl(2S,3R,2′S,3′R)-bis(2-amino-3-hydroxybutanoate)bis(trifluoroacetic acid) salt]",% test substance after 4 h [F(t = 4 h) × 100/F(t = 0 h)],"[2]; pH 4, 37° C.",100%
same,% test substance after 24 h [F(t = 24 h) × 100/F(t = 0 h)],"[2]; pH 4, 37° C.",95%
same,% test substance after 4 h [F(t = 4 h) × 100/F(t = 0 h)],"[2]; pH 7.4, 37° C.",95%
same,% test substance after 24 h [F(t = 24 h) × 100/F(t = 0 h)],"[2]; pH 7.4, 37° C.",72%
same,solubility at 24 h,[1]; [3],240 µg/mL
"C[C@@H](N)C(=O)OC[C@H](COc1ccc(-c2c(C#N)c(N)nc(SCc3coc(-c4ccc(Cl)cc4)n3)c2C#N)cc1)OC(=O)[C@@H](C)N [Example 9, (2S)-3-{4-[2-Amino-6-({[2-(4-chlorophenyl)-1,3-oxazol-4-yl]methyl}sulfanyl)-3,5-dicyanopyridin-4-yl]phenoxy}propane-1,2-diyl(2R,2′R)-bis(2-aminopropanoate)dihydrochloride]",solubility at 24 h,"[1]; aqueous buffer, dilute hydrochloric acid (pH 4)",535 µg/mL
"N#Cc1c(N)nc(SCc2coc(-c3ccc(Cl)cc3)n2)c(C#N)c1-c1ccc(OC[C@@H](COC(=O)CN)OC(=O)CN)cc1 [Example 3, (2S)-3-{4-[2-Amino-6-({[2-(4-chlorophenyl)-1,3-oxazol-4-yl]methyl}sulphanyl)-3,5-dicyanopyridin-4-yl]phenoxy}propane-1,2-diyl bis(aminoacetate) dihydrochloride]",% test substance after 4 h [F(t = 4 h) × 100/F(t = 0 h)],"[2]; pH 4, 37° C.",99%
same,% test substance after 24 h [F(t = 24 h) × 100/F(t = 0 h)],"[2]; pH 4, 37° C.",99%
same,% test substance after 4 h [F(t = 4 h) × 100/F(t = 0 h)],"[2]; pH 7.4, 37° C.",93%
same,% test substance after 24 h [F(t = 24 h) × 100/F(t = 0 h)],"[2]; pH 7.4, 37° C.",67%
"N#Cc1c(N)nc(SCc2coc(-c3ccc(Cl)cc3)n2)c(C#N)c1-c1ccc(OC[C@@H](COC(=O)CCCN)OC(=O)CCCN)cc1 [Example 14, (2S)-3-{4-[2-Amino-6-({[2-(4-chlorophenyl)-1,3-oxazol-4-yl]methyl}sulphanyl)-3,5-dicyanopyridin-4-yl]phenoxy}propane-1,2-diyl bis(4-aminobutanoate)dihydrochloride]",% test substance after 4 h [F(t = 4 h) × 100/F(t = 0 h)],"[2]; pH 4, 37° C.",97%
same,% test substance after 24 h [F(t = 24 h) × 100/F(t = 0 h)],"[2]; pH 4, 37° C.",92%
same,% test substance after 4 h [F(t = 4 h) × 100/F(t = 0 h)],"[2]; pH 7.4, 37° C.",93%
same,% test substance after 24 h [F(t = 24 h) × 100/F(t = 0 h)],"[2]; pH 7.4, 37° C.",74%
same,solubility at 24 h,[1]; [3],540 µg/mL
"N#Cc1c(N)nc(SCc2coc(-c3ccc(Cl)cc3)n2)c(C#N)c1-c1ccc(OC[C@@H](COC(=O)CCCCCN)OC(=O)CCCCCN)cc1 [Example 15, (2S)-3-{4-[2-Amino-6-({[2-(4-chlorophenyl)-1,3-oxazol-4-yl]methyl}sulphanyl)-3,5-dicyanopyridin-4-yl]phenoxy}propane-1,2-diyl bis(6-aminohexanoate) dihydrochloride]",solubility at 24 h,[1]; [3],830 µg/mL
